pKi: −log10 of the molar value. Structures can show the parent of a compound that is named as a salt.
molecular target: T1, 5-HT1F receptor (Homo sapiens, UniProt P30939); assay: biochemical; conditions: Table I; displacement of 4.5-5.5 nM [3H]5-HT, 37° C., 30 minutes; read-out: 5-HT1F BINDING Ki
T1 sequence (P30939 1-366): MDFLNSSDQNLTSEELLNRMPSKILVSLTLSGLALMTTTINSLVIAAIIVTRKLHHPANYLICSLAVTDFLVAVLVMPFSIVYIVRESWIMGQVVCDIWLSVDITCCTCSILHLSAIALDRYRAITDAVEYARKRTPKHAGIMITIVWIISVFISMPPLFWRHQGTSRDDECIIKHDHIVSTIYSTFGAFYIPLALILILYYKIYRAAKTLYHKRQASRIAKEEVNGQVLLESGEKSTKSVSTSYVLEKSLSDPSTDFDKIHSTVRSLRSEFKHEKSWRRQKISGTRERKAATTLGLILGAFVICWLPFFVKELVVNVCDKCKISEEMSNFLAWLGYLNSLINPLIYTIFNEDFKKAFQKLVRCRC

Compound | pKi
NC(=O)c1ccc2[nH]cc(C3CCN(CCc4cnn(-c5ccccc5)c4)CC3)c2c1 [Example 28, 5-carboxamido-3-<1-<2-<1-phenyl-1H-pyrazol-4-yl>ethyl>-4-piperidinyl>-1H-indole] | 7.62
CC(C)n1cc(CCN2CCC(c3c[nH]c4ccc(F)cc34)CC2)cn1 [Example 7, 5-fluoro-3-<1-<2-<1-(1-methylethyl)-1H-pyrazol-4-yl>ethyl>-4-piperidinyl>-1H-indole oxalate] | 8.31
CCCn1cc(CCN2CCC(c3c[nH]c4ccc(Br)cc34)CC2)cn1 [Example 15, 5-bromo-3-<1-<2-<1-propyl-1H-pyrazol-4-yl>ethyl>-4-piperidinyl>-1H-indoleoxalate] | 8.18
CC(C)n1cc(CCN2CCC(c3c[nH]c4ccc(Br)cc34)CC2)cn1 [Example 9, 5-bromo-3-<1-<2-<1-(1-methylethyl)-1H-pyrazol-4-yl>ethyl>-4-piperidinyl>-1H-indole oxalate] | 8.30
Cn1cc(CCN2CCC(c3c[nH]c4ccc(Br)cc34)CC2)cn1 [Example 4, 5-bromo-3-<1-<2-<1-methyl-1H-pyrazol-4-yl>ethyl>-4-piperidinyl>-1H-indoleoxalate] | 8.52
Clc1ccc2[nH]cc(C3CCN(CCc4cnn(-c5cccc(Br)c5)c4)CC3)c2c1 [Example 36, 5-chloro-3-<1-<2-<1-(3-bromophenyl)-1H-pyrazol-4-yl>ethyl>-4-piperidinyl>-1H-indole oxalate] | 6.85
Clc1ccc(-n2cc(CCN3CCC(c4c[nH]c5ccc(Cl)cc45)CC3)cn2)cc1 [Example 34, 5-chloro-3-<1-<2-<1-(4-chlorophenyl)-1H-pyrazol-4-yl>ethyl>-4-piperidinyl>- 1H-indole] | 6.79
Fc1ccc2[nH]cc(C3CCN(CCc4cnn(CC5CC5)c4)CC3)c2c1 [Example 20, 5-fluoro-3-<1-<2-<1-cyclopropylmethyl-1H-pyrazol-4-yl>ethyl>-4-piperidinyl>-1H-indole hydrochloride] | 8.05
Cn1cc(CCN2CCC(c3c[nH]c4ccccc34)CC2)cn1 [Example 1, 3-<1-<2-<1-methyl-1H-pyrazol-4-yl>ethyl>-4-piperidinyl>-1H-indolehydrochloride] | 8.24
CC(C)n1cc(CCN2CCC(c3c[nH]c4ccccc34)CC2)cn1 [Example 6, 3-<1-<2-<1-(1-methylethyl)-1H-pyrazol-4-yl>ethyl>-4-piperidinyl>-1H-indolehydrochloride] | 8.35
CCCn1cc(CCN2CCC(c3c[nH]c4ccccc34)CC2)cn1 [Example 12, 3-<1-<2-<1-propyl-1H-pyrazol-4-yl>ethyl>-4-piperidinyl>-1-H-indole oxalate] | 8.48
Fc1ccccc1-n1cc(CCN2CCC(c3c[nH]c4ccc(Cl)cc34)CC2)cn1 [Example 29, 5-chloro-3-<1-<2-<1-(2-fluorophenyl)-1H-pyrazol-4-yl>ethyl>-4-piperidinyl>- 1H-indole] | 7.98
Cc1ccccc1-n1cc(CCN2CCC(c3c[nH]c4ccc(Cl)cc34)CC2)cn1 [Example 41, 5-chloro-3-<1-<2-<1-(2-methylphenyl)-1H-pyrazol-4-yl>ethyl>-4-piperidinyl>- 1H-indole oxalate] | 6.82
CCCn1cc(CCN2CCC(c3c[nH]c4ccc(O)cc34)CC2)cn1 [Example 53, 5-hydroxy-3-<1-<2-<1-propyl-1H-pyrazol-4-yl>ethyl>-4-piperidinyl>-1H-indole] | 8.96

test system: protein extravasation in the dura from stimulation of the trigeminal ganglion; assay: not given; conditions: iv

Compound | Inhibition of Protein Extravasation, i.v. ID50
CCN(CC)C1CCc2cccc(Cl)c2C1.Cl (stereo not shown) [Compound IV, 8-chloro-2-diethylamino-1,2,3,4-tetrahydronaphthalene hydrochloride] | 1.2e-07 nmol/kg
CNS(=O)(=O)Cc1ccc2[nH]cc(CCN(C)C)c2c1.O=C(O)CCC(=O)O [Compound I, 3-[2-(dimethylamino)ethyl]-N-methyl-1H-indole-5-methanesulfonamide butane-1,4-dioate (1:1)] | 2.6e-08 nmol/kg

test system: cephalic vascular smooth muscle; assay: not given; conditions: cited from earlier work

Compound | contraction of cephalic vascular smooth muscle
CNS(=O)(=O)Cc1ccc2[nH]cc(CCN(C)C)c2c1.O=C(O)CCC(=O)O [Compound I, 3-[2-(dimethylamino)ethyl]-N-methyl-1H-indole-5-methanesulfonamide butane-1,4-dioate (1:1)] | contract cephalic vascular smooth muscle

test system: not given; assay: not given; conditions: in vivo; cited from earlier work

Compound | effectiveness in the treatment of migraine
CNS(=O)(=O)Cc1ccc2[nH]cc(CCN(C)C)c2c1.O=C(O)CCC(=O)O [Compound I, 3-[2-(dimethylamino)ethyl]-N-methyl-1H-indole-5-methanesulfonamide butane-1,4-dioate (1:1)] | effective in the treatment of migraine

test system: neurogenic inflammation; assay: not given; conditions: in vivo; cited from earlier work

Compound | block of neurogenic inflammation
CNS(=O)(=O)Cc1ccc2[nH]cc(CCN(C)C)c2c1.O=C(O)CCC(=O)O [Compound I, 3-[2-(dimethylamino)ethyl]-N-methyl-1H-indole-5-methanesulfonamide butane-1,4-dioate (1:1)] | blocked
